The record followed here is patent US10849901B2, “Arf6 inhibitors and methods of synthesis and use thereof” (Navigen, Inc., priority 2014, dated 2020).

Chain of Arf6 (P62330 14-175): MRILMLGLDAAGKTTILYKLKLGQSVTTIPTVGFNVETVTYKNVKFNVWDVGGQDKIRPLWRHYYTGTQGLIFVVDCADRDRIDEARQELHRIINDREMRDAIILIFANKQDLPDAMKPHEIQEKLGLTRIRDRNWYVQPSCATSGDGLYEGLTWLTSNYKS

The first assay deals with Arf6 (Homo sapiens (Human), UniProt P62330). The assay is described as follows: Fluorometric assay for Arf6 nucleotide exchange catalyzed by ARNO Sec7 domain (GTP-BODIPY FL). To be noted: 20 nM Arf6 assay; read-out: IC50 (μM) 20 nM Arf6. The class given is biochemical. As for the experimental part:
FIGS. 1A-1D: Fluorometric high throughput assay for Arf6 nucleotide exchange catalyzed by ARNO Sec7 domain. FIG. 1A: Principle of the assay. FIG. 1B: SDS-PAGE analysis of N-terminally His-tagged Arf6(14-175) and ARNO(50-255) purified from the E. coli cultures by immobilized metal affinity chromatography. FIG. 1C: Correlation between signal intensity and ARNO concentration. The assay was performed using 50 mM Tris-HCl, pH 7.5, 1 mM MgCl2, 0.01% TX-100, 1% DMSO, 50 nM GTP-BODIPY FL, supplemented with ARNO-Sec7 at indicated concentrations in the absence or in the presence of 0.2 μM Arf6-GDP. Fluorescence intensities were monitored using a Synergy 4 plate reader (BioTek) at the excitation and emission wavelengths of 490 nm and 520 nm, respectively. FIG. 1D: Time course of apparent inhibitory potency of GDP. The assay was performed in automated mode using a Matrix PlateMate liquid handler.
The primary biochemical assay uses a fluorometric assay for monitoring the replacement of bound nucleotide with a fluorogenic GTP derivative bearing a BODIPY FL moiety, allowing for the identification of compounds that can inhibit this exchange (see FIG. 1A). In certain embodiments, the methods disclosed herein may exploit the reduction of intramolecular fluorescence quenching of the modified nucleotide upon its binding to the target protein (see, e.g., McEwen D P, Gee K R, Kang H C, Neubig R R. Fluorescent BODIPY-GTP analogs: real-time measurement of nucleotide binding to G proteins. Anal Biochem. 2001 Apr. 1; 291(1): 109-17).
The fluorometric assay formatted for 96-well microtiter plates has passed quality control based on the following criteria: i) S/B ratio of 4-fold and Z′-factor of 0.61; ii) linear correlation between signal intensity and ARNO concentration (see FIG. 1C); iii) sufficiently reproducible inhibitory effects of the reference inhibitor GDP for assay durations up to at least 1 hour (see FIG. 1D); and iv) lack of apparent fluorescence quenchers among 400 randomly selected compounds. The assay is amenable to automation with a throughput of approximately 5,000 data points per 8 hours.
For the compound `O=c1cc(-c2cccc(-c3cccnc3)c2)[nH]c2c(-c3ccc(Cl)c(Cl)c3)c(C(F)(F)F)nn12` [Compound 1], the IC50 – broadly, the concentration that inhibits the measured activity by half – was found to be 0.25 µM.

Turning to `O=c1cc(-c2cccc(Oc3cc(F)cc(F)c3)c2)[nH]c2c(-c3ccc(Cl)c(Cl)c3)c(C(F)(F)F)nn12` [Compound 2], the half-inhibitory concentration (IC50) was 0.33 µM.

On to `O=C(Nc1ccc(C2=Nc3c(-c4ccc(Cl)cc4)c(C(F)(F)F)nn3C(=O)C2)cc1)c1ccccc1` [Compound 3], for which the IC50 was determined as 0.5 µM.

In the case of `O=c1cc(-c2ccc([N+](=O)[O-])cc2)[nH]c2c(-c3ccc(Cl)c(Cl)c3)c(-c3ccccc3)nn12` [Compound 5], the IC50 was found to be 0.58 µM.

In the case of `O=c1cc(-c2ccc(Oc3ccccc3)cc2)[nH]c2c(-c3ccc(Cl)c(Cl)c3)c(C(F)(F)F)nn12` [Compound 6], the IC50 is 0.66 µM.

For `O=c1cc(-c2ccc([N+](=O)[O-])cc2)[nH]c2c(-c3ccc(Cl)c(Cl)c3)c(C(F)(F)F)nn12` [Compound 7], the IC50 was 0.66 µM.

For `O=c1cc(-c2ccc([N+](=O)[O-])cc2)[nH]c2c(-c3ccc(Cl)c(C(F)(F)F)c3)c(C(F)(F)F)nn12` [Compound 8], the IC50 stood at 0.67 µM.

Regarding `O=c1cc(Cc2ccccc2)[nH]c2c(-c3ccc(Cl)c(Cl)c3)c(C(F)(F)F)nn12` [Compound 9], the IC50 was found to be 0.84 µM.

Consider `O=c1c(Cl)c(-c2ccc([N+](=O)[O-])cc2)[nH]c2c(-c3ccc(Cl)cc3)c(C(F)(F)F)nn12` [Compound 10], for which the IC50 worked out at 0.88 µM.

With `O=c1cc(-c2ccc([N+](=O)[O-])cc2)[nH]c2c(-c3ccc(Cl)cc3)c(-c3ccccc3)nn12` [Compound 11], the half-inhibitory concentration (IC50) is 0.96 µM.

With `Cc1ccc(-c2cccc(-c3cc(=O)n4nc(C(F)(F)F)c(-c5ccc(Cl)cc5)c4[nH]3)c2)cn1` [Compound 12], the IC50 was 0.96 µM.

For the compound `O=c1c(Cl)c(-c2ccccc2)[nH]c2c(-c3ccc(Cl)cc3)c(C(F)(F)F)nn12` [Compound 13], the half-inhibitory concentration (IC50) stood at 0.98 µM.

As to `O=c1cc(-c2cccc(Oc3ccccc3)c2)[nH]c2c(-c3ccc(Cl)c(Cl)c3)c(C3CC3)nn12` [Compound 14], the IC50 is 1 µM.

As to `O=c1cc(-c2ccc(Br)cc2)[nH]c2c(-c3ccc(Cl)cc3)c(C(F)(F)F)nn12` [Compound 15], the half-maximal inhibitory concentration (IC50) was determined as 1.1 µM.

Turning to `CCC(=O)Nc1ccc(-c2cc(=O)n3nc(C(F)(F)F)c(-c4ccc(Cl)cc4)c3[nH]2)cc1` [Compound 16], the IC50 amounted to 1 µM.

Turning to `O=c1cc(-c2ccc(-c3cccnc3)cc2)[nH]c2c(-c3ccc(Cl)cc3)c(C(F)(F)F)nn12` [Compound 17], the half-inhibitory concentration (IC50) is 1.1 µM.

For `Cc1nn2c(=O)cc(-c3ccc([N+](=O)[O-])cc3)[nH]c2c1-c1ccc(-c2ccccc2)cc1` [Compound 18], the IC50 was found to be 1.1 µM.

With `CN(C)c1ccc(-c2cccc(-c3cc(=O)n4nc(C(F)(F)F)c(-c5ccc(Cl)cc5)c4[nH]3)c2)cn1` [Compound 19], the concentration for half-maximal inhibition (IC50) came out at 1.1 µM.

As to `O=c1cc(-c2ccc([N+](=O)[O-])cc2)[nH]c2c(-c3cccc4ccccc34)c(Cc3ccccc3)nn12` [Compound 20], the half-inhibitory concentration (IC50) came to 1.1 µM.

Take `O=c1cc(-c2cccc([N+](=O)[O-])c2)[nH]c2c(-c3ccc(Cl)cc3)c(C(F)(F)F)nn12` [Compound 21]: the IC50 is 1.2 µM.

Take `O=c1cc(-c2ccc([N+](=O)[O-])cc2)[nH]c2c(-c3ccc(Cl)c(Cl)c3)c(C3CC3)nn12` [Compound 22]: the half-inhibitory concentration (IC50) came to 1.2 µM.

For the compound `O=c1cc(-c2ccc([N+](=O)[O-])cc2)[nH]c2c(-c3ccc(Cl)c(Cl)c3)c(Cc3ccccc3)nn12` [Compound 23], the 50% inhibitory concentration (IC50) was 1.2 µM.

`O=c1c(Cl)c(-c2ccc([N+](=O)[O-])cc2)[nH]c2c(-c3ccc(Cl)cc3)c(Cc3ccccc3)nn12` [Compound 24, 2-benzyl-6-chloro-3-(4-chlorophenyl)-5-(4-nitrophenyl)-4H-pyrazolo[1,5-a]pyrimidin-7-one]: the half-inhibitory concentration (IC50) was determined as 1.3 µM.

Take `O=c1cc(-c2ccc(Cl)cc2)[nH]c2c(-c3ccc(Cl)cc3)c(C(F)(F)F)nn12` [Compound 25]: the IC50 stood at 1.4 µM.

As for `COc1cc(-c2c(C)nn3c(=O)cc(-c4ccc([N+](=O)[O-])cc4)[nH]c23)ccc1Cl` [Compound 26], the IC50 amounted to 1.4 µM.

Turning to `O=c1cc(-c2ccc([N+](=O)[O-])cc2)[nH]c2c(-c3ccc(Cl)c(Cl)c3)c(C3CC3)nn12` [Compound 27], the IC50 worked out at 1.4 µM.

Consider `CC(c1ccccc1)c1nn2c(=O)cc(-c3ccc([N+](=O)[O-])cc3)[nH]c2c1-c1ccc(Cl)cc1` (stereo not drawn) [Compound 28], for which the half-inhibitory concentration (IC50) amounted to 1.4 µM.

For `O=c1cc(-c2ccccc2)[nH]c2c(-c3ccc(Cl)cc3)c(Cc3ccccc3)nn12` [Compound 29], the IC50 came to 1.5 µM.

Regarding `Cc1nn2c(=O)cc(-c3ccc([N+](=O)[O-])cc3)[nH]c2c1-c1ccc(Oc2ccccc2)cc1` [Compound 30], the 50% inhibitory concentration (IC50) was 1.5 µM.

As for `COc1ccc(-c2cccc(-c3cc(=O)n4nc(C(F)(F)F)c(-c5ccc(Cl)cc5)c4[nH]3)c2)cn1` [Compound 31], the IC50 was 1.5 µM.

Consider `CC(C)(C)c1nn2c(=O)cc(-c3ccccc3C#N)[nH]c2c1-c1ccc(Cl)cc1` [Compound 32], for which the concentration for half-maximal inhibition (IC50) came to 1.5 µM.

As to `O=c1cc(-c2ccc([N+](=O)[O-])cc2)[nH]c2c(-c3ccc(Cl)cc3)c(C(F)(F)F)nn12` [Compound 33], the half-maximal inhibitory concentration (IC50) amounted to 1.6 µM.

Take `O=c1cc(-c2cccc(Br)c2)[nH]c2c(-c3ccc(Cl)cc3)c(C(F)(F)F)nn12` [Compound 34]: the IC50 worked out at 1.6 µM.

Consider `CC(C)CC(=O)Nc1ccc(-c2cc(=O)n3nc(C(F)(F)F)c(-c4ccc(Cl)cc4)c3[nH]2)cc1` [Compound 35], for which the half-maximal inhibitory concentration (IC50) worked out at 1.7 µM.

`Cc1nn2c(=O)cc(-c3ccc([N+](=O)[O-])cc3)[nH]c2c1-c1ccc(Cl)cc1Cl` [Compound 36]: the half-maximal inhibitory concentration (IC50) amounted to 1.7 µM.

In the case of `Cc1nn2c(=O)cc(-c3ccc([N+](=O)[O-])cc3)[nH]c2c1-c1ccc(Cl)cc1` [Compound 39], the IC50 was found to be 1.9 µM.

`N#Cc1ccc(-c2cc(=O)n3nc(C(F)(F)F)c(-c4ccc(Cl)cc4)c3[nH]2)cc1` [Compound 40]: the IC50 was 1.9 µM.

For `Cc1nn2c(=O)cc(-c3ccc(NC(=O)Cc4ccccc4)cc3)[nH]c2c1-c1ccc(Cl)cc1` [Compound 41], the IC50 came to 1.9 µM.

On to `Cc1nn2c(=O)cc(-c3ccc(NC(=O)NCc4ccccc4)cc3)[nH]c2c1-c1ccc(Cl)cc1` [Compound 42], for which the concentration for half-maximal inhibition (IC50) worked out at 2.1 µM.

With `Cc1nn2c(=O)cc(-c3ccc([N+](=O)[O-])cc3)[nH]c2c1-c1cc(Cl)cc(Cl)c1` [Compound 43], the IC50 worked out at 2.1 µM.

In the case of `CC(C)(C)c1nn2c(=O)cc(-c3cccc(C#N)c3)[nH]c2c1-c1ccc(Cl)cc1` [Compound 44], the IC50 amounted to 2.2 µM.

Take `CC(c1ccccc1)c1cc(=O)n2nc(C(F)(F)F)c(-c3ccc(Cl)cc3)c2[nH]1` (stereo not drawn) [Compound 45]: the IC50 was 2.3 µM.

`O=c1cc(-c2ccc([N+](=O)[O-])cc2)[nH]c2c(-c3ccc(Cl)cc3)c(Cc3ccncc3)nn12` [Compound 46]: the 50% inhibitory concentration (IC50) amounted to 2.4 µM.

Still in this assay, the particulars now being: 200 nM Arf6 assay; read-out: IC50 (μM) 200 nM Arf6.
`O=c1cc(-c2ccc(Oc3ccccc3)cc2)[nH]c2c(-c3ccc(Cl)c(Cl)c3)c(C(F)(F)F)nn12` [Compound 6]: the concentration for half-maximal inhibition (IC50) came out at 1.1 µM.

As for `O=c1cc(Cc2ccccc2)[nH]c2c(-c3ccc(Cl)c(Cl)c3)c(C(F)(F)F)nn12` [Compound 9], the IC50 worked out at 1.6 µM.

For `O=c1c(Cl)c(-c2ccc([N+](=O)[O-])cc2)[nH]c2c(-c3ccc(Cl)cc3)c(Cc3ccccc3)nn12` [Compound 24, 2-benzyl-6-chloro-3-(4-chlorophenyl)-5-(4-nitrophenyl)-4H-pyrazolo[1,5-a]pyrimidin-7-one], the 50% inhibitory concentration (IC50) was determined as 1.4 µM.

In the case of `O=c1cc(-c2ccccc2)[nH]c2c(-c3ccc(Cl)cc3)c(Cc3ccccc3)nn12` [Compound 29], the IC50 worked out at 3.3 µM.

With `O=c1cc(-c2ccc([N+](=O)[O-])cc2)[nH]c2c(-c3ccc(Cl)cc3)c(C(F)(F)F)nn12` [Compound 33], the IC50 amounted to 2.6 µM.

Take `O=c1cc(-c2ccc([N+](=O)[O-])cc2O)[nH]c2c(-c3ccc(Cl)cc3)c(Cc3ccccc3)nn12` [Compound 37]: the IC50 came to 1.7 µM.

Consider `Cc1nn2c(=O)cc(-c3ccc([N+](=O)[O-])cc3)[nH]c2c1-c1ccc(Cl)cc1` [Compound 39], for which the IC50 was 4.7 µM.

Regarding `O=c1cc(-c2ccc([N+](=O)[O-])cc2)[nH]c2c(-c3ccc(Cl)cc3)c(Cc3ccncc3)nn12` [Compound 46], the concentration for half-maximal inhibition (IC50) turned out to be 3.2 µM.
